The subject of assay [1] is NIH3T3 cells. Put plainly: Cell entry of polyamines (Cy3 fluorescence, injection). The class given is cell-based, mouse. As to conditions: 100 μM, 20 min. On the procedure:
(§1) Polyamine compounds were dissolved in Milli-Q water to give a stock solution of 30 mM. For immunostaining and microscopy experiments, polyamine compounds were added to the cell medium at a final concentration of 100 μM, except for experiments which tested efficiency. For immunostaining experiments, NIH3T3 cells were incubated with Blebbistatin (30 μM), ML7 (10 μM), Y27632 (10 μM), Cytochalasin D (1 μM) (Sigma-Aldrich) for 30 min, LY294002 (50 μM) (Sigma-Aldrich) for 30 minutes. Latrunculin A (1.5 μM) (Sigma-Aldrich) was added for 5 min. After additional 20 min incubation with 100 μM polyamine, cells were fixed and stained.
Fluorescent images were taken in a Fluorescence Nikon Ti microscope (60× oil objective, NA 1.25) combined with a Photometrics CoolSNAP HQ2 camera and NIS acquisition software.

In assay [2] the target is T1, actin with Capping Protein (Oryctolagus cuniculus, UniProt P68135).
T1 construct: Actin was purified from rabbit skeletal muscle, isolated in CaATP-G-actin form by size exclusion chromatography; from tissue; host or cells: rabbit skeletal muscle (actin); bacteria (Capping Protein)
Put plainly: Critical concentration and steady-state F-actin in the presence of Capping Protein. The class given is biochemical, rabbit. As to conditions: 100 μM, 1 μM total actin. On the procedure: (§2) Critical concentration plots were performed by serial dilution of F-actin (10% pyrenyl-labeled) in F buffer containing the desired amounts of BPA/MPA. Pyrenyl-actin fluorescence was read after overnight incubation in the dark.
(§3) Actin was purified from rabbit skeletal muscle, isolated in CaATP-G-actin form by size exclusion chromatography in G buffer (5 mM Tris-Cl—, pH 7.8, 0.1 mM CaCl2, 0.2 mM ATP, 1 mM DTT, 0.01% NaN3) and pyrenyl-labeled as described^1. Human gelsolin, mouse profilin, mouse Capping Protein and human ADF were bacterial recombinant proteins, and Arp2/3 was purified from bovine brain as described in Egile et al.^39. His6-tagged human N-WASP was expressed in sf9 cells using the baculovirus expression system and purified as described^39. Spectrin-actin seeds were isolated and purified from human blood cells^40.

The test system of assay [3] is NIH3T3 cells. Put plainly: Growth of lamellipodia / increase in projected cell area in NIH3T3 cells. The class given is cell-based, mouse. As to conditions: 100 μM. On the procedure:
as §1
(§4) Increase in cell area for given time point (n=5, 10 and 20 min) was calculated by (A1n-A0)/A0, where A0 and A1n are the areas before and after polyamine addition, respectively. Kymographs for the analysis of actin retrograde flow in the lamellipodia region were performed in ImageJ. Moving features were visualized as diagonal streaks with slope depending on the velocity of movement.
(§5) Cells were fixed in 3% PFA (Sigma-Aldrich) for 17 min and then permeabilized with 0.5% Triton solution (Sigma-Aldrich) for 3 min and rinsed twice with 1× PBS. For actin and focal contacts staining, cells were incubated with Alexa 488 phalloidin (1:200, Molecular Probes) and anti-paxillin monoclonal primary antibody (1:50, BD Biosciences) for 45 min at RT. Samples were finally mounted in 50% Glycerol/1× PBS on glass slides and protected from drying. For the intermediate filaments staining, cells were quenched in NaBH4/PBS solution for 10 min at RT. Cells were incubated first with anti-vimentin (1:500, Convance) for 1 h and then with goat anti-guinea pig Dylight 594 (1:1000, Jackson) for 45 min at RT. Microtubules were fixed using methanol at −20° C. for 10 min and stained with mouse monoclonal anti-alpha tubulin (1:50, Sigma-Aldrich) for 45 min at RT.
NIH3T3 mouse fibroblast and REF52 rat embryo fibroblasts (ATCC) were cultured in DMEM supplemented with 10% calf bovine serum (BCS, Sigma-Aldrich) or fetal bovine serum (FCS, Hyclone) and 1% Pen/Streptomycin (InVitrogen). […]

The next assay addresses T2, F-actin with ADF (Oryctolagus cuniculus, UniProt P68135).
T2 construct: Actin was purified from rabbit skeletal muscle, isolated in CaATP-G-actin form by size exclusion chromatography; from tissue; host or cells: rabbit skeletal muscle (actin); bacteria (ADF, gelsolin)
Put plainly: ADF-induced depolymerization of gelsolin-capped filaments and sedimentation assay. The class given is biochemical, rabbit. The text has this:
Actin-based motile processes result from site-directed initiation of actin assembly by two major signal-responsive protein machineries. WASP family proteins use the Arp2/3 complex to branch filaments at the membrane and assemble a dendritic protrusive meshwork, while formins initiate barbed-end processive assembly of actin bundles. In both cases, force is produced by barbed-end growth fueled by regulated treadmilling. Treadmilling that drives the formation of dendritic actin arrays is enhanced by the synergistic effects of capping proteins, profilin and Actin Depolymerizing Factor (ADF/cofilin). ADF is known to destabilize actin filaments, promoting a large increase in pointed end depolymerization rate, the limiting step in filament treadmilling^17. FIG. 6 Ba-c confirms that gelsolin-capped filaments depolymerize up to a maximum of 30-fold faster in the presence of ADF, in agreement with previous data^17. […] In the presence of cyclic or branched polyamines, the rate of depolymerization was much less enhanced by ADF (about three-fold at 3 μM ADF, versus 30-fold in the control without polyamines).
(§6) Actin was purified from rabbit skeletal muscle, isolated in CaATP-G-actin form by size exclusion chromatography in G buffer (5 mM Tris-Cl—, pH 7.8, 0.1 mM CaCl2, 0.2 mM ATP, 1 mM DTT, 0.01% NaN3) and pyrenyl-labeled as described^1. […]

In assay [4] the test system is NIH3T3 cells. Put plainly: Actin filament stability in Triton-treated cells. The class given is cell-based, mouse. The settings on record: 100 μM, then 0.1% Triton.
Assay [5] has as its target T3, actin filament barbed ends (Oryctolagus cuniculus, UniProt P68135).
T3 construct: Actin was purified from rabbit skeletal muscle, isolated in CaATP-G-actin form by size exclusion chromatography; from tissue; host or cells: rabbit skeletal muscle
Put plainly: Seeded barbed end growth assay (spectrin-actin seeds). The class given is biochemical, rabbit. The settings on record: neomycin up to at least 100 μM. On the procedure: (§7) Actin assembly was monitored using as probes the increase in light scattering intensity (310 nm, 90° angle) and in the fluorescence of pyrenyl-actin (excitation 366 nm, emission 407 nm). Measurements were made at room temperature in a Xenius Safas spectrofluorimeter. CaATP-G-actin was converted into MgATP-G-actin by addition of 20 μM MgCl2 and 0.2 mM EGTA to a solution of 10 μM CaATP-G-actin in G buffer. Polymerization was triggered by addition of MgCl2 (1 mM final), EGTA (0.2 mM final) and KCl as indicated to MgATP-G-actin. The 1:1 CaATP-actin complex was obtained by removing free ATP by two consecutive treatments of CaATP-G-actin in G buffer with 10% suspension vol/vol of Dowex-I (BioRad) in G buffer without ATP.
Seeded barbed end growth assays were performed at 2.5 μM actin and 0.1 nM spectrin-actin seeds^38. Pointed end growth assays were performed similarly but using preformed gelsolin-actin complexes (2 nM final) as seeds. The initial rate of fluorescence increase was measured.
as §6

Another assay concerns the target T4, F-actin (Oryctolagus cuniculus, UniProt P68135).
T4 construct: Actin was purified from rabbit skeletal muscle, isolated in CaATP-G-actin form by size exclusion chromatography; from tissue; host or cells: rabbit skeletal muscle
Put plainly: Critical concentration plots, free barbed ends. The class given is biochemical, rabbit. As to conditions: F-actin at steady state. As for the experimental part:
as §2, §3

For another assay, the system named is REF 52 cell. Put plainly: Actin retrograde flow in lamellipodia. The class given is cell-based, rat. As to conditions: lamellipodia region, kymographs, n=6 cells. On the procedure:
as §4
NIH3T3 mouse fibroblast and REF52 rat embryo fibroblasts (ATCC) were cultured in DMEM supplemented with 10% calf bovine serum (BCS, Sigma-Aldrich) or fetal bovine serum (FCS, Hyclone) and 1% Pen/Streptomycin (InVitrogen). Cells were grown at 37° C. and 5% CO2. For microscopy and immunostaining, cells were trypsinized (0.25% Trypsin-EDTA, InVitrogen), centrifuged and plated on glass coverslips. For live cell observation, Leibovitz's L-15 1× medium (InVitrogen) supplemented with 10% serum (FCS for REF52 and BCS for NIH3T3 cells) and 1% antibiotics was used.
For retrograde flow experiments, surfaces were coated with poly-lysine (Sigma-Aldrich) as described in Verkhovsky et al.^20.
Actin retrograde flow velocity experiments were performed in a Leica DM 2500 Microscope with a 100× oil objective at 37° C. Data acquisition was 1 image/5 sec.

In assay [6] the target is T5, N-WASP-coated beads, actin-based propulsion (Oryctolagus cuniculus, UniProt P68135).
T5 construct: Actin was purified from rabbit skeletal muscle, isolated in CaATP-G-actin form by size exclusion chromatography; from tissue; host or cells: rabbit skeletal muscle (actin); sf9/baculovirus (N-WASP); bacteria (ADF, profilin, Capping Protein); bovine brain (Arp2/3)
Put plainly: Reconstituted motility assay of N-WASP-coated beads. The class given is biochemical. The settings on record: 50 μM added a few minutes after initiation of comet tail formation. On the procedure:
Reconstituted motility assays were performed using 2 μm diameter carboxylated polystyrene beads functionalized with N-WASP (170 nM, 2 hours, followed by 1% BSA neutralization for 20 min)^19. Beads were placed in a reconstituted motility mix containing 7.5 μM F-actin, 75 nM Capping Protein, 2 μM profilin, 7 μM ADF, 75 nM Arp2/3 complex in × buffer (10mM HEPES, 0.1M KCl, 1 mM MgCl2, 0.1 mM CaCl2, 1 mM ATP, 7 mM DTT, 1.5 mM DABCO at pH 7.8, 0.5% BSA and 0.2% methylcellulose). C8N6 BPA was then added at 50 μM. Observations were made using a phase contrast Olympus AX70 microscope controlled by MetaMorph 6.3r7 with CCD camera and 20× phase objective. Data analysis was performed to extract bead velocity with ImageJ software. Bead velocity was measured and averaged on 10-15 beads.
as §3

A further assay concerns the target T6, actin (Oryctolagus cuniculus, UniProt P68135).
T6 construct: Actin was purified from rabbit skeletal muscle, isolated in CaATP-G-actin form by size exclusion chromatography; from tissue; host or cells: rabbit skeletal muscle
Put plainly: Actin assembly and bundling (light scattering, pyrenyl-actin fluorescence, electron microscopy). The class given is biochemical, rabbit. As to conditions: for bundling / polymerization of actin filaments in vitro: light scattering, neomycin vs BPA: low ionic strength (G-buffer), up to at least 100 μM. On the procedure:
as §7, §3
Electron microscopy observation of actin assemblies in the presence of C7N6 MPA was performed using a Philips CM12 electron microscope at 80 kV. Samples containing actin (2 μM) in either in G or F form and C7N6 MPA were prepared and placed on glow-discharged carbon-coated grids.

In assay [7] the test system is NIH3T3 cells. Put plainly: Immunofluorescence of microtubule and intermediate filament organization. The class given is cell-based, mouse. The settings on record: 100 μM, 20 min. On the procedure: as §5

Entries after “also recorded” stand apart in the source; their conditions may differ.

As for `CC[N+](CC)(CC)CCC[N+]1=C(/C=C/C=C2/N(CCCCCC(=O)NCCCN(CCCN)CCCCCCCCN(CCCN)CCCN)c3ccccc3C2(C)C)C(C)(C)c2ccccc21` [C8N6 BPA-Cy3], the entry into cells result was “the polyamines enter the cells” with NIH3T3 cells [1]; “entered the cell and displayed the same effect as the unlabeled C8N6 BPA; also recorded: the polyamines enter the cells” in the assay on NIH3T3 cells [1] (listed as Cy3-labeled C8N6 BPA).

For `NCCCN(CCCN)CCCCCCCCN(CCCN)CCCN` [C8N6 BPA], the “nucleation / short polymers in the presence of capping protein” value is on record as “enhance nucleation by capping proteins” in [2] and “stabilizes a greater number of short polymers in the presence of capping protein” in [2] (listed as BPA). For the same compound, the “focal contacts (paxillin immunofluorescence)” value with NIH3T3 cells [3] (20 min) is “exhibited the expected distribution and shapes of focal contacts”. Also, the “actin bundles within the lamellipodial array” value in the assay on NIH3T3 cells [3] (20 min, actin staining) is “bundles of actin arranged in microspikes were observed”. Moreover, the growth of lamellipodia result in the assay on NIH3T3 cells [3] (NIH3T3 cells, compound added to the cell culture medium) is recorded as “promote growth of lamellipodia”. Further, at F-actin with ADF (gelsolin-capped filaments), the “ADF-induced increase in rate of F-actin depolymerization” value is recorded as “greatly weakened”. Besides, the “steady state of actin assembly in the presence of ADF” value at F-actin with ADF (sedimentation, F-actin 3 μM, 0.3 mM polyamine, one hour) is “practically unaffected; also recorded: not affected”. For the same compound, the “stabilization of actin filaments in Triton-treated cells” value in the assay with NIH3T3 cells [4] is on record as “stabilizes actin filaments in Triton-treated cells like Jasplakinolide”. Besides, in assay [5], the “inhibition of barbed-end growth” value is given as “inhibition”. For the same compound, the “critical concentration for filament assembly” value was “not significantly affected” at F-actin and “strictly superimposable” on F-actin (listed as BPA). For the same compound, in the assay with REF 52 cell, the “actin retrograde flow velocity” value is “clear reduction in the actin retrograde flow”. Further, the “propulsion rate of N-WASP-coated beads” value in assay [6] was “dramatic decrease in propulsion rate”. Moreover, the “assembly of actin at physiological ionic strength” value on actin (1 mM MgCl2, 0.1 M KCl) is recorded as “induced assembly of actin”. Also, the figures for the “bundling / polymerization of actin filaments in vitro” value on actin and on actin (listed as BPA) were “induce ATP sensitive bundling of actin filaments” and “massive bundling is induced”, respectively. Further, in the assay with NIH3T3 cells [7], the “organization of microtubules and intermediate filaments” value is “no effect on microtubules and intermediate filaments organization”.

For the compound neomycin [reference compound], in assay [5], the “inhibition of barbed-end growth” value is on record as “does not inhibit barbed-end growth; also recorded: not inhibited”. In addition, the “bundling / polymerization of actin filaments in vitro” value on actin was “does not induce bundling of actin; also recorded: does not promote polymerization of actin”.

The record behind these values is US20150239824A1, “BRANCHED OR MACROCYCLIC POLYAMINES AND USES THEREOF” (UNIVERSITE DE STRASBOURG, priority 2012, published 2015).
